Values joined by “and” are separate entries in the source; they are usually repeats but may differ in a detail not shown here. Equal entries are not always repeated.
How the values were obtained:
Dirofilaria immitis = experiment: D. immitis L3 infection of NSG mice (FR3 Missouri strain or strain not stated), treatment, recovery and count of worms at necropsy; assay type: in vivo; settings: for % Rec / Survival / % Rec (percent of the original 50 Di recovered) / Survival (number of Di recovered from the mouse): individual mouse; for % Rec (percent of the original 50 Di recovered) / Survival (number of Di recovered from the mouse): 1 mg/kg
[1] = test system: Dirofilaria immitis (Merial worms, UC strain); experiment: D. immitis L3 infection of NSG mice with Merial worms / UC strain, treatment, recovery and count of worms; assay type: in vivo
[2] = test system: Strongyloides stercoralis; experiment: Strongyloides stercoralis L3 infection of NSG mice with or without MPA, treatment, counts of adult worms, L1 and L3; settings: 6 weeks post-injection; for Adult S. stercoralis recovery counts (individual mice) / Adult S. stercoralis recovery counts, mean / L1 S. stercoralis recovery counts (individual mice) / L1 S. stercoralis recovery counts, mean / L3 S. stercoralis recovery counts (individual mice) / L3 S. stercoralis recovery counts, mean: 5000 L3 s.c.; for Circulating L3: NSG mice, 5000 S. stercoralis L3 SC, with or without MPA
Excerpt: NSG mice infected by subcutaneous injection with 5000 S. stercoralis L3 larvae, either with or without MPA. […] Adult worms, L1 larvae, or L3 larvae were counted in the mice at 6 weeks post-injection.

Haemonchus contortus = Haemonchus contortus L3 infection of control and MPA-treated NSG mice, worm and egg recovery; assay type: in vivo
[3] = NSG mice, 50 Di L3, 1x (1 mg/kg) at Day 30, recovery Days 41 to 43
[4] = NSG mice, 50 Di L3, 2x (1 mg/kg) at Days 1 and 30, recovery Days 41 to 43
[5] = NSG mice, 50 Di L3, 3x (1 mg/kg) at Days 1, 15, and 30, recovery Days 41 to 43
[6] = NSG mice, 50 Di L3 Day 0, 1 mg/kg EMO or 8800 on Days 30 and 60, recovery Days 83 and 84
[7] = NSG mice, 50 Di L3 Day 0, 1 mg/kg on Day 30, recovery Days 41 to 43
[8] = Table 9, NSG mice, 50 Di L3, 1 mg/kg on Days 1, 15, and 30, recovery Days 41 to 43
[9] = Table 9, group mean, NSG mice, 50 Di L3, 1 mg/kg on Days 1, 15, and 30, recovery Days 41 to 43
[10] = Table 11, NSG mice, 50 Di L3, 5 mg/kg on Days 1, 15, and 30, recovery Days 41 to 42
[11] = Table 11, group mean, NSG mice, 50 Di L3, 5 mg/kg on Days 1, 15, and 30, recovery Days 41 to 42
[12] = group mean, NSG mice, 50 Di L3, 1x (1 mg/kg) at Day 30, recovery Days 41 to 43
[13] = group mean, NSG mice, 50 Di L3 Day 0, 1 mg/kg EMO or 8800 on Days 30 and 60, recovery Days 83 and 84
[14] = group mean, NSG mice, 50 Di L3 Day 0, 1 mg/kg on Day 30, recovery Days 41 to 43
[15] = EMO 1 mg/kg Days 1, 15, 30, 50 Di L3 (UC Strain) per NSG mouse, recovery Days 41 to 43, group mean
[16] = EMO 1 mg/kg Days 1, 15, 30, 50 Di L3 (UC Strain) per NSG mouse, recovery Days 41 to 43, individual mice
[17] = group mean, NSG mice, 50 Di L3 Merial worms, 1 mg/kg on Days 1, 15, and 30, recovery Days 41 to 43
[18] = group mean, NSG mice, 50 Di L3 Merial worms, high dose 5 mg/kg on Days 1, 15, and 30, recovery Days 41 to 43
[19] = group mean, NSG mice, 50 Di L3 UC strain, High Dose 5 mg/kg on Days 1, 15, and 30, recovery Days 41 and 42
[20] = individual mouse, NSG mice, 50 Di L3 Merial worms, 1 mg/kg on Days 1, 15, and 30, recovery Days 41 to 43, 1 mg/kg
[21] = individual mouse, NSG mice, 50 Di L3 Merial worms, high dose 5 mg/kg on Days 1, 15, and 30, recovery Days 41 to 43, 5 mg/kg
[22] = individual mouse, NSG mice, 50 Di L3 UC strain, High Dose 5 mg/kg on Days 1, 15, and 30, recovery Days 41 and 42, 5 mg/kg
[23] = EMO Control: 2.5 mg/kg EMO days 1, 15, 30, without MPA
[24] = EMO/MPA: 2.5 mg/kg EMO days 1, 15, 30, with MPA (hyperinfection)
[25] = IVM Control: 3 mg/kg IVM days 1, 15, 30, without MPA
[26] = IVM/MPA: 3 mg/kg IVM days 1, 15, 30, with MPA (hyperinfection)

CC(C)C[C@H]1C(=O)O[C@H](Cc2ccc(N3CCOCC3)cc2)C(=O)N(C)[C@@H](CC(C)C)C(=O)O[C@H](C)C(=O)N(C)[C@@H](CC(C)C)C(=O)O[C@H](Cc2ccc(N3CCOCC3)cc2)C(=O)N(C)[C@@H](CC(C)C)C(=O)O[C@H](C)C(=O)N1C [EMO, emodepside]
HW parasite load (normalized percent larva recovery, FIG. 2) (Dirofilaria immitis; NSG mice dosed orally with 1 mg/kg at Days 1, 15, and 30 post-infection, day 42/6 weeks): significantly reduced HW parasite load | % Red (Dirofilaria immitis; [3]): 0% | % Red (Dirofilaria immitis; [4]): 15% | % Red (Dirofilaria immitis; [5]): 50% | % Red (Dirofilaria immitis; [6]): 86% | % Red (percent reduction in percent of Di recovered compared to control) (Dirofilaria immitis; [7]): 30% | % Red (Dirofilaria immitis; [8]): 33% | Mean % Rec (Dirofilaria immitis; [9]): 22% | Mean Survival (Dirofilaria immitis; [9]): 11 | % Rec (Dirofilaria immitis; [8]): 26% and 24% (2×) and 16% (2×) and 20% and 22% | Survival (Dirofilaria immitis; [8]): 13 and 12 (2×) and 8 (2×) and 10 and 11 | % Red (Dirofilaria immitis; [10]): 0% | Mean % Rec (Dirofilaria immitis; [11]): 26% | Mean Survival (Dirofilaria immitis; [11]): 13 | % Rec (Dirofilaria immitis; [10]): 22% (2×) and 28% and 36% and 34% and 14% | Survival (Dirofilaria immitis; [10]): 11 (2×) and 14 and 18 and 17 and 7 | Mean % Rec (Dirofilaria immitis; [12]): 39% | Mean Survival (Dirofilaria immitis; [12]): 19 | Mean % Rec (Dirofilaria immitis; group mean, NSG mice, 50 Di L3, 2x (1 mg/kg) at Days 1 and 30, recovery Days 41 to 43): 29% | Mean % Rec (Dirofilaria immitis; group mean, NSG mice, 50 Di L3, 3x (1 mg/kg) at Days 1, 15, and 30, recovery Days 41 to 43): 17% | Mean % Rec (Dirofilaria immitis; [13]): 2% | Mean Survival (Dirofilaria immitis; [13]): 1 | Mean % Rec (Dirofilaria immitis; [14]): 28% | Mean Survival (Dirofilaria immitis; [14]): 14 | Mean Survival (Dirofilaria immitis; in vivo): 14 and 9 | % Rec (Dirofilaria immitis; [3]): 36% and 28% (2×) and 46% (2×) and 42% and 44% | Survival (Dirofilaria immitis; [3]): 18 and 14 (2×) and 23 (2×) and 21 and 22 | % Rec (Dirofilaria immitis; [4]): 28% and 26% (3×) and 30% and 42% and 22% | Survival (Dirofilaria immitis; [4]): 14 and 13 (3×) and 15 and 21 and 11 | % Rec (Dirofilaria immitis; [5]): 28% (2×) and 14% and 22% and 4% and 6% and 20% | Survival (Dirofilaria immitis; [5]): 14 (2×) and 7 and 11 and 2 and 3 and 10 | % Rec (percent of the original 50 Di recovered) (Dirofilaria immitis; [6]): 2% (3×) and 0% (3×) and 6% (2×) | Survival (number of Di recovered from the mouse) (Dirofilaria immitis; [6]): 1 (3×) and 0 (3×) and 3 (2×) | % Rec (percent of the original 50 Di recovered) (Dirofilaria immitis; [7]): 24% and 30% (2×) and 32% and 28% and 26% | Survival (number of Di recovered from the mouse) (Dirofilaria immitis; [7]): 12 and 15 (2×) and 16 and 14 and 13 | % Rec, Mean [1, 15]: 24% | Survival, Mean [1, 15]: 12 | % Rec [1, 16]: 18% (2×) and 26% and 30% (2×) and 12% and 36% | Survival [1, 16]: 9 (2×) and 13 and 15 (2×) and 6 and 18 | % Red ([1]; NSG mice, 50 Di L3 Merial worms, 1 mg/kg on Days 1, 15, and 30, recovery Days 41 to 43): 35% | % Red ([1]; NSG mice, 50 Di L3 Merial worms, high dose 5 mg/kg on Days 1, 15, and 30, recovery Days 41 to 43): 0% | % Red ([1]; NSG mice, 50 Di L3 UC strain, High Dose 5 mg/kg on Days 1, 15, and 30, recovery Days 41 and 42): 47% | Mean % Rec [1, 17]: 22% | Mean Survival [1, 17]: 11 | Mean % Rec [1, 18]: 51% | Mean Survival [1, 18]: 25 | Mean % Rec [1, 19]: 19% | Mean Survival [1, 19]: 10 | % Red ([1]; in vivo): 37% | % Rec [1, 20]: 14% and 26% and 24% (2×) and 16% and 20% and 32% and 22% | Survival [1, 20]: 7 and 13 and 12 (2×) and 8 and 10 and 16 and 11 | % Rec [1, 21]: 52% and 68% and 48% (4×) and 56% and 36% | Survival [1, 21]: 26 and 34 and 24 (4×) and 28 and 18 | % Rec [1, 22]: 20% (3×) and 22% (2×) and 18% and 14% | Survival [1, 22]: 10 (3×) and 11 (2×) and 9 and 7 | Adult S. stercoralis recovery counts (individual mice) [2, 23]: 0 (4×) and 1 | Adult S. stercoralis recovery counts, mean [2, 23]: 0.2 | L1 S. stercoralis recovery counts (individual mice) [2, 23]: 0 | L1 S. stercoralis recovery counts, mean [2, 23]: 0 | L3 S. stercoralis recovery counts (individual mice) [2, 23]: 5 (2×) and 8 and 0 and 1 | L3 S. stercoralis recovery counts, mean [2, 23]: 4 | Adult S. stercoralis recovery counts (individual mice) [2, 24]: 0 | Adult S. stercoralis recovery counts, mean [2, 24]: 0 | L1 S. stercoralis recovery counts (individual mice) [2, 24]: 0 | L1 S. stercoralis recovery counts, mean [2, 24]: 0 | L3 S. stercoralis recovery counts (individual mice) [2, 24]: 4 and 123 and 228 and 102 and 130 and 39 and 18 | L3 S. stercoralis recovery counts, mean [2, 24]: 92 | Circulating L3 ([2]; 2.5 mg/kg on days 1, 15, and 30): reduced the circulating L3

CC[C@H](C)[C@H]1O[C@]2(CC[C@@H]1C)C[C@@H]1C[C@@H](C/C=C(\C)[C@@H](O[C@H]3C[C@H](OC)[C@@H](O[C@H]4C[C@H](OC)[C@@H](O)[C@H](C)O4)[C@H](C)O3)[C@@H](C)/C=C/C=C3\CO[C@@H]4[C@H](O)C(C)=C[C@@H](C(=O)O1)[C@]34O)O2 [IVM, ivermectin]
% Rec, Mean (Dirofilaria immitis; in vivo): 1% and 4% and 2% | Mean % Rec (Dirofilaria immitis; in vivo): 6% | Mean Survival (Dirofilaria immitis; in vivo): 3 | HW parasite load (normalized percent larva recovery, FIG. 2) (Dirofilaria immitis; in vivo, po, 3 mg/kg): significantly reduced HW parasite load | % Red ([1]; in vivo, 3 mg/kg): 47% | Mean % Rec ([1]; in vivo, 3 mg/kg): 18% | Mean Survival ([1]; in vivo, 3 mg/kg): 9 | Adult S. stercoralis recovery counts (individual mice) [2, 25]: 0 | Adult S. stercoralis recovery counts, mean [2, 25]: 0 | L1 S. stercoralis recovery counts (individual mice) [2, 25]: 0 | L1 S. stercoralis recovery counts, mean [2, 25]: 0 | L3 S. stercoralis recovery counts (individual mice) [2, 25]: 6 and 9 and 26 and 210 and 2 | L3 S. stercoralis recovery counts, mean [2, 25]: 51 | Adult S. stercoralis recovery counts (individual mice) [2, 26]: 0 | Adult S. stercoralis recovery counts, mean [2, 26]: 0 | L1 S. stercoralis recovery counts (individual mice) [2, 26]: 0 | L1 S. stercoralis recovery counts, mean [2, 26]: 0 | L3 S. stercoralis recovery counts (individual mice) [2, 26]: 19 and 24 and 4 and 13 and 25 and 16 and 40 and 38 | L3 S. stercoralis recovery counts, mean [2, 26]: 22 | Circulating L3 ([2]; 3 mg/kg on days 1, 15, and 30): reduced the circulating L3

CC(=O)OCC(=O)[C@@]1(O)CC[C@H]2[C@@H]3C[C@H](C)C4=CC(=O)C=C[C@]4(C)[C@H]3[C@@H](O)C[C@@]21C [MPA, methylprednisolone acetate]
Hc Recovery, Average (Haemonchus contortus; MPA-treated NSG mice, 500 Hc L3 oral gavage, 14 Days PI): 10.5 | Hc Recovery, Average (Haemonchus contortus; MPA-treated NSG mice, 500 Hc L3 oral gavage, 21 Days PI): 2 | Hc Recovery, Average (Haemonchus contortus; MPA-treated NSG mice, 500 Hc L3 oral gavage, 28 Days PI): 0 | Hc Recovery, Average (Haemonchus contortus; MPA-treated NSG mice, 500 Hc L3 oral gavage, 56 Days PI): 0 | Hc Recovery, Average (Haemonchus contortus; MPA-treated NSG mice, 500 Hc L3 oral gavage, 7 days PI): 19.5 | Hc Recovery (individual mice) (Haemonchus contortus; MPA-treated NSG mice, 1000 Hc L3 oral gavage, 14 Days PI): 15 and 1 | Hc Recovery (individual mice) (Haemonchus contortus; MPA-treated NSG mice, 1000 Hc L3 oral gavage, 21 Days PI): 15 and 20 | Hc Recovery (individual mice) (Haemonchus contortus; MPA-treated NSG mice, 1000 Hc L3 oral gavage, 28 Days PI): 0 and 1 | Hc Recovery (individual mice) (Haemonchus contortus; MPA-treated NSG mice, 1000 Hc L3 oral gavage, 56 Days PI): 0 | Hc Recovery, Average (Haemonchus contortus; MPA-treated NSG mice, 1000 Hc L3 oral gavage, 7 days PI): 36 | # Eggs Found (Haemonchus contortus; in vivo): 2 | Hc Recovery (individual mice) (Haemonchus contortus; in vivo, po): 19 and 2 and 0 and 36 and 3 and 24 and 48 | Adult S. stercoralis recovery counts (individual mice) ([2]; MPA only (hyperinfection)): 888 and 235 and 34 and 437 and 581 and 447 | Adult S. stercoralis recovery counts, mean ([2]; MPA only (hyperinfection)): 437 | L1 S. stercoralis recovery counts (individual mice) ([2]; MPA only (hyperinfection)): 86 and 24 and 8456 and 9181 and 3464 and 670 | L1 S. stercoralis recovery counts, mean ([2]; MPA only (hyperinfection)): 3647 | L3 S. stercoralis recovery counts (individual mice) ([2]; MPA only (hyperinfection)): 275 and 31 and 2760 and 1766 and 632 and 1015 | L3 S. stercoralis recovery counts, mean ([2]; MPA only (hyperinfection)): 1080
